{
  "source": "patent US20220362167A1",
  "about": "“WATER-DISPERSIBLE CANNABIDIOL PRODUCT AND PREPARATION METHOD THEREFOR” (GUILIN LAYN NATURAL INGREDIENTS CORP., priority 2019, published 2022)",
  "test": "Water solubility test of cannabidiol product",
  "type": "physicochemical",
  "conditions": "50 mg in 500 mL distilled water, room temperature, stirred",
  "experimental": "Water Solubility Test of Cannabidiol Product\nThree parts of 500 mL of distilled water are taken. 50 mg of the cannabidiol product prepared in Example 1, Comparative Example 1 and Comparative Example 2 are added respectively at room temperature, and stirred, and recorded the time required for dissolution, with the cannabidiol as control.",
  "data": [
    {"smiles": "C=C(C)[C@@H]1CCC(C)=C[C@H]1c1c(O)cc(CCCCC)cc1O", "note": "[cannabidiol]", "values": [
      {"measurement": "appearance of the solution", "result": "precipitation and delamination"}
    ]}
  ]
}
